According to article PMC6731241, “L-Type Amino Acid Transporter 1 (LAT1/Lat1)-Utilizing Prodrugs Can Improve the Delivery of Drugs into Neurons, Astrocytes and Microglia” (Scientific Reports, 2019):
Read-outs that look alike come from different tables or passages of the source. Each block holds one molecule with its values, some of them ahead of it.

What was measured:
[1] = Bioconversion in immortalized BV2 microglia homogenate; type: in vitro ADME, mouse; settings: for half-life at 400 µM: mouse, pH 7.4, 37 °C
Method: (§1) The rates of bioconversion of all studied prodrugs in immortalized BV2 microglia and primary astrocytes homogenates were determined at 37 °C. The cell homogenates were prepared by homogenizing 10 × 10^6 cells/ml in HBSS (pH 7.4) with SoniPerp 150 Plus disintegrator (MSE Ltd., London, UK) for 2 s × 3. The incubation mixtures were prepared by mixing cell homogenate (final protein concentration 1.0 mg/mL) with HBSS buffer and 10 mM prodrug stock solution in DMSO (the final concentration of prodrugs was 400 µM and the DMSO concentration […]). The mixture was then incubated for 5 h and the samples (50 µL) were withdrawn at appropriate intervals. The proteins in the samples were precipitated with ice-cold acetonitrile (150 µL) and the samples were centrifuged for 5 min at 12 000 × g at room temperature. The supernatants were collected and analyzed by the LC-MS methods as reported earlier[19],[24],[26]. In blank reactions (chemical stability), the cell homogenate was replaced with same volume of buffer. The pseudo-first-order half-lives (t½) for the rates of bioconversion of the prodrugs were calculated from the slope of the linear portion of the plotted logarithm of remaining prodrug concentration versus time.

[2] = test system: immortalized microglia (BV2); test: Cell viability of immortalized microglia (resazurin); type: cell-based; settings: 100 µM, 24 h
Method: 2. Effects of LAT1-Utilizing Prodrugs and Their Parent Drugs on the Cell Viability of Immortalized
Immortalized microglia (BV2) were seeded at the density of 2 × 10^4 cells/well onto collagen-coated 96-well plates. The cells were used for the proliferation experiments one day after seeding. A concentration of 100 µM of studied compounds were added into the growth medium and incubated for 24 h, after which the cell viability was determined by resazurin cell proliferation kit (Sigma, St.
Louis, MO, USA). The samples were measured fluorometrically by monitoring the increase in fluorescence at a wavelength of 590 nm using an excitation wavelength of 560 nm (EnVision, Perkin Elmer, Inc., Waltham, MA, USA), which is directly proportional to aerobic respiration and cellular metabolism of cells. The cell death was confirmed in the decrease of cell amount by visualizing the […]
Figure S2. The cell viability of immortalized microglia (BV2) after 24 h incubation of 100 µM LAT1-utilizing prodrugs (PD1-PD6) and their parent drugs (D1-D3) presented as percentages (%) compared to the untreated cells (ctrl) (mean ± SD, n=3-6). An asterisk denotes a statistically significant difference from the respective control (** P < 0.01, * P < 0.05 one-way ANOVA, followed by […]

[3] = Bioconversion in primary astrocytes homogenate; type: in vitro ADME, mouse; settings: for half-life at 400 µM: mouse, primary astrocytes homogenate, pH 7.4, 37 °C
Method: as §1

[4] = design: method as in PMID 28662899, PMID 27266990; settings: unspecific brain tissue binding, fraction unbound (fu,brain), equilibrium dialysis; cited from earlier work
Lat1 [5] = target: T1, Lat1 (Mus musculus, UniProt Q9Z127); test: [14C]-L-Leu uptake kinetics, primary cortical neurons and immortalized microglia (joint range); settings: range over primary cortical neurons and immortalized microglia
T1 sequence (Q9Z127 whole entry): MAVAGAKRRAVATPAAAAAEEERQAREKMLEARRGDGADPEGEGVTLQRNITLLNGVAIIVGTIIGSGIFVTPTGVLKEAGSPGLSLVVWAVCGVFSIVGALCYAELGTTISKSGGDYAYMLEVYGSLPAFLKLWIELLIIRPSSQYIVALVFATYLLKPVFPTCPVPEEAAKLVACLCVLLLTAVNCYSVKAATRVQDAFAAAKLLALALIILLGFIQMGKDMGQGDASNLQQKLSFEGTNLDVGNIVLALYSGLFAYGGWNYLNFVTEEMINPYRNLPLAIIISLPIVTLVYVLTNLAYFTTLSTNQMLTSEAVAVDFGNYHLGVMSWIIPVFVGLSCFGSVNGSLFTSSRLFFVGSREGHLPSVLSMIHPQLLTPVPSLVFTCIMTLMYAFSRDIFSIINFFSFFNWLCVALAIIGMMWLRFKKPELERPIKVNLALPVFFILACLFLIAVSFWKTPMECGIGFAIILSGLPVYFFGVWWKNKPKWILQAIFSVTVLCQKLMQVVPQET
T1 sequence (P10852 whole entry partner): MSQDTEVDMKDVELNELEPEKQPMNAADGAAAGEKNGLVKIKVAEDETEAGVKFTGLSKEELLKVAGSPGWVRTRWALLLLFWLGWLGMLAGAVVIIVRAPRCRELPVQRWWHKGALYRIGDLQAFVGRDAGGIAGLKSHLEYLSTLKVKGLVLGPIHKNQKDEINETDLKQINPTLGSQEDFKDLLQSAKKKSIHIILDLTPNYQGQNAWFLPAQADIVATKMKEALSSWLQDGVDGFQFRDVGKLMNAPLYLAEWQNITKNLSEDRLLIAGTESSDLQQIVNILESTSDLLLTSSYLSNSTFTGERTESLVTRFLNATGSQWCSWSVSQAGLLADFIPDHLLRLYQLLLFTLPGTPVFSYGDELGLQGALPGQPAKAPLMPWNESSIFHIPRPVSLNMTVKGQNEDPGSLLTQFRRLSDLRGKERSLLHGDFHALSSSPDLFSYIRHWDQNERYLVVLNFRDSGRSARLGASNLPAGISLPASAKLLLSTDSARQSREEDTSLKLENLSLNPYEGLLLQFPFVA

Lat1 [6] = target: T1, Lat1; test: [14C]-L-Leu uptake kinetics in immortalized microglia (BV2); settings: 0.76–75 µM, 2.5 min
LAT1/Lat1 = test system: LAT1/Lat1; design: method as in PMID 11557028, PMID 15567481, PMID 19890975; settings: human LAT1 transfected cells or cancer cells expressing hLAT1 or rodent Lat1; read-out: Affinity (Km), previously reported values; cited from earlier work
Lat1 [7] = target: T1, Lat1; test: [14C]-L-Leu uptake kinetics in primary cortical neurons; settings: 0.76–75 µM, 2.5 min
Lat1 [8] = target: T1, Lat1; test: [14C]-L-Leu uptake kinetics in primary astrocytes; settings: 0.76–75 µM, 2.5 min
[9] = cited from earlier work
Lat1 [10] = target: T1, Lat1; test: Competitive prodrug uptake with LAT1/Lat1-inhibitor (KMH-233), all cell types; type: cell-based; design: neurons and microglia also express functional Lat1 on their cell surface; endogenous in cells; host or cells: mouse primary cortical neurons, mouse primary astrocytes, immortalized mouse microglia (BV2); settings: 100 µM KMH-233, range over all cell types
Method: The competitive uptake in the presence of LAT1/Lat1-inhibitor (KMH-233) was carried out as described above with HBSS buffer solution containing 1–10 µM of the studied compounds. The cells were pre-incubated with 100 µM LAT1/Lat1-inhibitor for 10 min and the incubation mixture was removed before adding the studied prodrug and LAT1/Lat1-inhibitor on the cells. The competitive uptake (30 min) with the inhibitor was then carried out as the normal uptake described above. The amounts of studied compounds were analyzed by the LC-MS method and calculated from the spiked standard curve and normalized with the protein concentrations.

[11] = test system: primary cortical neurons and immortalized microglia; test: Cellular uptake of compounds, neurons and microglia (joint range); type: cell-based, mouse; settings: for Uptake of prodrug relative to parent drug 2: primary cortical neurons and immortalized microglia
Method: (§2) Pre-incubation was done with 500 μL of pre-warmed HBSS at 37 °C for 10 min before adding substrates (250 μL in HBSS) for the uptake experiments. The ability of brain cell to carry a known LAT1/Lat1 substrate, the cells were incubated with [^14C]-L-leucine at 37 °C for 2.5 min in uptake buffer (HBSS, 250 μL) containing 0.76–75 μM (0.25 mCi/ml) of [^14C]-L-leucine (PerkinElmer, Waltham, MA, USA).
(§3) The protein concentrations on each plate were determined as a mean of three samples by Bio-Rad Protein Assay, based on the Bradford dye-binding method, using bovine serum albumin (BSA) as a standard protein and measuring the absorbance (595 nm) by multiplate reader (EnVision, Perkin Elmer, Inc., Waltham, MA, USA).

mouse primary astrocytes = test: Cellular uptake of compounds into primary astrocytes; type: cell-based
Method: as §2, §3

mouse primary neurons = test: Cellular uptake of compounds into primary neurons; type: cell-based; settings: 25, 50 and 100 µM (Fig. 4c)
Method: as §2

[12] = test system: immortalized microglia (BV2); test: Cellular uptake of compounds into immortalized microglia (BV2); type: cell-based, mouse; settings: 25, 50 and 100 µM (Fig. 4c)
Method: as §2

[13] = cited from earlier work; remark: listed apart in the source
[14] = 400 µM, read-out: Half-life of bioconversion

SMILES: COc1cc(/C=C/C(=O)Nc2cccc(C[C@H](N)C(=O)O)c2)ccc1O [PD5]
- Stability in cell homogenate ([1]; microglia homogenate): stable
- Effect on cell viability [2]: slightly increased the cell proliferation
- Stability in cell homogenate ([3]; astrocytes homogenate): stable
- Brain Protein Binding fu (%) [4]: 7.0%

- Km (Lat1 [7]): 146 ± 47.3 µM
- Vmax (Lat1 [7]): 1.90 ± 0.44 nmol/min/mg protein
- Km (Lat1 [8]): 65.9 ± 14.3 µM
- Vmax (Lat1 [8]): 2.92 ± 0.36 nmol/min/mg protein
SMILES: CC(C)C[C@H](N)C(=O)O [[^14C]-L-Leu, L-leucine]
- Km (Lat1 [5]): 85.8 to 146 µM
- Vmax (Lat1 [5]): 0.84–1.90 nmol/min/mg of protein
- Vmax (Lat1 [6]): 0.84 ± 0.12 nmol/min/mg protein
- Km (LAT1/Lat1): 9 to 52 µM

SMILES: COc1cc(/C=C/C(=O)Oc2cccc(C[C@H](N)C(=O)O)c2)ccc1O [PD6]
- half-life at 400 µM ([1]; tissue homogenate, microglia homogenate, read-out: Estimated half-life of bioconversion): > 9 h
- half-life at 400 µM ([3]; astrocytes homogenate, read-out: Estimated half-life of bioconversion): > 9 h
- Intact prodrug detected after 5 h ([9]; brain S9 subcellular fraction): 70%

SMILES: CC(C(=O)Oc1cccc(C[C@H](N)C(=O)O)c1)c1cccc(C(=O)c2ccccc2)c1 (some centres unmarked) [PD3]
- Inhibition of prodrug uptake by LAT1/Lat1-inhibitor (Lat1 [10]; 1 µM prodrug): 47.41–58.32%
- half-life at 400 µM ([1]; immortalized BV2 microglia homogenate, immortalized microglia homogenate, 400 µM, read-out: Half-life of bioconversion): 3.35 ± 0.224 h
- Uptake of prodrug relative to parent drug 2 [11]: 1–7 times
- Uptake of prodrug relative to ketoprofen (mouse primary astrocytes): 10–80 times
- half-life at 400 µM [3, 14]: 4.71 ± 0.263 h
- Half-life in brain S9 subcellular fraction ([9]; approximate): ~1 h
- t½ in mouse brain S9 subcellular fraction ([9]; conversion to ketoprofen): 0.866 ± 0.0387 h

SMILES: O=C1OCc2cc(-c3ccc(-c4ccc(CO)cc4)s3)ccc21 [D1, reference compound]
- Brain Protein Binding fu (%) [4]: 0.03%

- Cell uptake (mouse primary neurons): below LLOQ
SMILES: COc1cc(/C=C/C(=O)O)ccc1O [D3, ferulic acid, reference compound]
- Amount in cells (under the detection limit) ([11]; neurons and microglia): < 1.0 nM
- Cell uptake [12]: below LLOQ
- Brain Protein Binding fu (%) [4]: 26.0%

SMILES: N[C@H](Cc1cccc(C(=O)OCc2ccc(-c3ccc(-c4ccc5c(c4)COC5=O)s3)cc2)c1)C(=O)O [PD1]
- half-life at 400 µM ([1]; tissue homogenate, immortalized microglia homogenate, 400 µM, read-out: Half-life of bioconversion): 3.96 ± 0.738 h
- Uptake of prodrug relative to its parent drug ([11]; neurons and microglia): 10–17
- half-life at 400 µM [3, 14]: 5.81 ± 0.402 h
- Half-life in brain S9 subcellular fraction ([9]; in vitro, listed as Prodrug 1): approximately 4.7 h
- Half-life in brain S9 subcellular fraction ([9]; in vitro, listed as prodrug 1): approximately 5 h
- Brain Protein Binding fu (%) [4]: 1.4%
- Half-life in vivo ([13]; brain): 1.4 h
- Half-life in vivo ([13]; liver): 1.25 h
- Half-life in vivo ([13]; plasma): 1.57 h

SMILES: CC(C(=O)Nc1cccc(C[C@H](N)C(=O)O)c1)c1cccc(C(=O)c2ccccc2)c1 (some centres unmarked) [PD2]
- Stability in cell homogenate ([1]; microglia homogenate): completely stable
- Uptake of prodrug relative to parent drug 2 [11]: 1–7 times
- Uptake of prodrug relative to ketoprofen (mouse primary astrocytes): 10–80 times
- Stability in cell homogenate ([3]; astrocytes homogenate): completely stable
- Stability in brain S9 subcellular fraction ([9]; in vitro media lack co-factors): stable and do not release ketoprofen at all
- Brain Protein Binding fu (%) [4]: 6.2%
- Half-life in vivo (release of ketoprofen) ([13]; brain): 0.45 h
- Half-life in vivo (release of ketoprofen) ([13]; liver): 0.383 h
- Half-life in vivo (release of ketoprofen) ([13]; plasma): 0.267 h

SMILES: COc1cc(/C=C/C(=O)NCc2cccc(C[C@@H](N)C(=O)O)c2)ccc1O [PD4]
- Inhibition of prodrug uptake by LAT1/Lat1-inhibitor (Lat1 [10]; 10 µM prodrug): 83.24–85.23%
- Stability in cell homogenate ([1]; microglia homogenate): stable
- Effect on cell viability [2]: slightly increased the cell proliferation
- Stability in cell homogenate ([3]; astrocytes homogenate): stable
- Brain Protein Binding fu (%) [4]: 13.0%
